Measurements published in ChEMBL document CHEMBL3621197, “Design, synthesis, and preliminary bioactivity studies of substituted purine hydroxamic acid derivatives as novel histone deacetylase (HDAC) inhibitors” (Medchemcomm, 2014).

How the values were obtained:
[1] = biological target: T1, Histone deacetylase (HDAC1 and HDAC2) (Homo sapiens, UniProt Q13547+Q92769); conditions: HeLa, at 5 µM
Description: Inhibition of HDAC1/HDAC2 isolated from human HeLa cells at 5 umol/L incubated for 30 mins by Color de Lys assay

[2] = biological target: T1, Histone deacetylase (HDAC1 and HDAC2); experiment: Inhibition of HDAC1/HDAC2 isolated from human HeLa cells incubated for 30 mins by Color de Lys assay; format: cell-based
MDA-MB-231 = experiment: cells; format: functional, cell-based; conditions: Homo sapiens, MDA-MB-231, 48 h
Description: Cytotoxicity against human MDA-MB-231 cells assessed as inhibition of cell proliferation after 48 hrs by MTT assay

MCF7 = experiment: cells; format: functional, cell-based; conditions: Homo sapiens, MCF7, 48 h
Description: Cytotoxicity against human MCF7 cells assessed as inhibition of cell proliferation after 48 hrs by MTT assay

cells [3] = format: functional, cell-based; conditions: Homo sapiens, KG-1, 48 h
Description: Cytotoxicity against human KG1 cells assessed as inhibition of cell proliferation after 48 hrs by MTT assay

PC-3 = experiment: cells; format: functional, cell-based; conditions: Homo sapiens, PC-3, 48 h
Description: Cytotoxicity against human PC3 cells assessed as inhibition of cell proliferation after 48 hrs by MTT assay

A549 = experiment: cells; format: functional, cell-based; conditions: Homo sapiens, A549, 48 h
Description: Cytotoxicity against human A549 cells assessed as inhibition of cell proliferation after 48 hrs by MTT assay

U-937 = experiment: cells; format: functional, cell-based; conditions: Homo sapiens, U-937, 48 h
Description: Cytotoxicity against human U937 cells assessed as inhibition of cell proliferation after 48 hrs by MTT assay

HeLa = experiment: cells; format: functional, cell-based; conditions: Homo sapiens, 48 h
Description: Cytotoxicity against human HeLa cells assessed as inhibition of cell proliferation after 48 hrs by MTT assay

cells [4] = format: functional, cell-based, ES2; conditions: Homo sapiens, ES-2, 48 h
Description: Cytotoxicity against human ES2 cells assessed as inhibition of cell proliferation after 48 hrs by MTT assay

Histone deacetylase 1 = Histone deacetylase 1 (Homo sapiens, UniProt Q13547); experiment: Inhibition of recombinant full length human HDAC1 (1 to 482 amino acids) expressed in Baculovirus infected insect Sf9 cells incubated for 30 mins measured by fluorescence assay
Histone deacetylase 1, sequence (Q13547 whole entry, the tested form may be a part): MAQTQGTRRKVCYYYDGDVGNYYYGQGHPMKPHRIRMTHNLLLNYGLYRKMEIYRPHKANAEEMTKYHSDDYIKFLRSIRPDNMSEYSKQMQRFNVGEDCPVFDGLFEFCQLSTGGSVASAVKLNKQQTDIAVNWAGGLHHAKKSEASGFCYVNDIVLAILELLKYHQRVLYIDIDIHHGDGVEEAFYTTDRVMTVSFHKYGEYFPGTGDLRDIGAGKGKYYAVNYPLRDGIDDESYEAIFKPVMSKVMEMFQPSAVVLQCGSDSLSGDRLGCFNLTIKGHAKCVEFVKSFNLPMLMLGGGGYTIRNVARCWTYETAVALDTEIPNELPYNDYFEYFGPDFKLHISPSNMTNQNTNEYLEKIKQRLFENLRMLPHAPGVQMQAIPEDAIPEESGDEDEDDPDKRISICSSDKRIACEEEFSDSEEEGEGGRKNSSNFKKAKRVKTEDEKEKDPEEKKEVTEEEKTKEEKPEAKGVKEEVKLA

[5] = biological target: T2, Protein deacetylase HDAC6 (Homo sapiens, UniProt Q9UBN7); experiment: Inhibition of recombinant full length human HDAC6 expressed in Baculovirus infected insect Sf9 cells incubated for 30 mins measured by fluorescence assay
T2 sequence (Q9UBN7 whole entry): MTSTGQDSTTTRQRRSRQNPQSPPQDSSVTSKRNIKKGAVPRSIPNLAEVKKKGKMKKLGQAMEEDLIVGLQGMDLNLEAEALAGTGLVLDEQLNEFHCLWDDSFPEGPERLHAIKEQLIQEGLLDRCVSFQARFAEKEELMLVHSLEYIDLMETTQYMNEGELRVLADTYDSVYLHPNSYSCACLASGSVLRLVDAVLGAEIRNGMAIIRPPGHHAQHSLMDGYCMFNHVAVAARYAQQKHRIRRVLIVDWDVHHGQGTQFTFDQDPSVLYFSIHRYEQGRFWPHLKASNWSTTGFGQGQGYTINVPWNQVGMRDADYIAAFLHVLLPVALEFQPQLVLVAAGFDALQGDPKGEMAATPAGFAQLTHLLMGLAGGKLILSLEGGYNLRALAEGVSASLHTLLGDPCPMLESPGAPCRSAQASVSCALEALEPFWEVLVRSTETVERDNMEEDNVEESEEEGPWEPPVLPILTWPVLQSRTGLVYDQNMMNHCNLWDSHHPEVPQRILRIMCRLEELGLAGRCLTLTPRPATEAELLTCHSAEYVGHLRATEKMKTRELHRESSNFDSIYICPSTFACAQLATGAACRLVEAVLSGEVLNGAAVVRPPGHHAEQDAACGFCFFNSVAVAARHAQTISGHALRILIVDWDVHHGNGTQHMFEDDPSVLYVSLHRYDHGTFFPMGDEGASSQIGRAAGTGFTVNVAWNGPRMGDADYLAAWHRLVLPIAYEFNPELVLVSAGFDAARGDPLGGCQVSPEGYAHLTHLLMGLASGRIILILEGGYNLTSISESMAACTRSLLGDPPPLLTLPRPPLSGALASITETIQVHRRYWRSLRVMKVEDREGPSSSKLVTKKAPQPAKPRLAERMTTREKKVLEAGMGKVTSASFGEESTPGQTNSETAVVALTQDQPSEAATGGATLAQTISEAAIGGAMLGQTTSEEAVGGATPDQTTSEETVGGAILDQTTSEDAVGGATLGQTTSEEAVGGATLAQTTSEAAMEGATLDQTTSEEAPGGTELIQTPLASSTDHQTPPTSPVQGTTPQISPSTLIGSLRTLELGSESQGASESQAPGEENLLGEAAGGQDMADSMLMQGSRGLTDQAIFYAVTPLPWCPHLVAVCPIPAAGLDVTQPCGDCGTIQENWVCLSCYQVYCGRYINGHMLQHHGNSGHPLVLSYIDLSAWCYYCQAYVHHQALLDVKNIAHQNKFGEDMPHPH

Histone deacetylase 8 = biological target: T3, Histone deacetylase 8 (Homo sapiens, UniProt Q9BY41); experiment: Inhibition of recombinant full length human HDAC8 expressed in Baculovirus infected insect Sf9 cells preincubated for 30 mins followed by substrate addition measured after 15 to 45 mins by luminescence assay
T3 sequence (Q9BY41 whole entry): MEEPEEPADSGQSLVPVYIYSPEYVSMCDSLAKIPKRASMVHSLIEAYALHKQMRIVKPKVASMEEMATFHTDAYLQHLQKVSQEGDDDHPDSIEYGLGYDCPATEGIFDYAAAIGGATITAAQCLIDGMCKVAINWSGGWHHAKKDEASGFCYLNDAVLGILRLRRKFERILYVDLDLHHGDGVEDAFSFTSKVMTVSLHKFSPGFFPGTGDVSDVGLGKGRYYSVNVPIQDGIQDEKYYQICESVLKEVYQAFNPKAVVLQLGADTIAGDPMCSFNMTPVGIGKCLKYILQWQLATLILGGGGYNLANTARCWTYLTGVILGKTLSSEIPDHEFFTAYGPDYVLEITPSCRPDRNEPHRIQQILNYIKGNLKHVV

T1 sequence (Q13547 whole entry, looked up): as the sequence (Q13547 whole entry, the tested form may be a part) above
T1 sequence (Q92769 whole entry, looked up): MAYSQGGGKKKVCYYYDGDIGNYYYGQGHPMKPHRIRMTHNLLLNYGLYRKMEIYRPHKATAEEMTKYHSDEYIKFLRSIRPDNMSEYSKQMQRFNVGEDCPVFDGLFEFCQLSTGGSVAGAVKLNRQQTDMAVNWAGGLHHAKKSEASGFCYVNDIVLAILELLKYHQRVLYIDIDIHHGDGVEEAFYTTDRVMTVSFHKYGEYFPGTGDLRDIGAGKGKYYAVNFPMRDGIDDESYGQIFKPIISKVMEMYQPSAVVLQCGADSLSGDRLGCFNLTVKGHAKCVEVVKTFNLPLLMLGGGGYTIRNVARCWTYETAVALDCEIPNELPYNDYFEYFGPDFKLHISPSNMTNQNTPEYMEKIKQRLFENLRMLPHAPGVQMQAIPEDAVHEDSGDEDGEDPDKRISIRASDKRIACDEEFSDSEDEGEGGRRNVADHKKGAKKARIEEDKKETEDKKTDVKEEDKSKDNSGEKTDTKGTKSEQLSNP

inhibition [1] [%]	IC50 [2] [µM]	IC50 (MDA-MB-231) [µM]	IC50 (MCF7) [µM]	IC50 (cells [3]) [µM]	Compound	other results
11	–	–	–	–	O=C(CCCNC(=O)Cn1cnc2c(NCc3ccccc3)ncnc21)NO	–
49	> 5	–	–	–	O=C(CCCCCNC(=O)Cn1cnc2c(N3CCOCC3)ncnc21)NO	–
53	4.53	41.3	> 50	–	Nc1nc(N2CCOCC2)c2ncn(CC(=O)NCCCCCC(=O)NO)c2n1	–
69	> 5	–	–	–	O=C(CCCNC(=O)Cn1cnc2c(N3CCOCC3)nc(Nc3ccccc3)nc21)NO	–
3	–	–	–	–	O=C(CNC(=O)Cn1cnc2c(NCc3ccccc3)ncnc21)NO	–
25	–	–	–	–	O=C(Cc1ccc(NC(=O)Cn2cnc3c(N4CCOCC4)ncnc32)cc1)NO	–
3	–	–	–	–	O=C(CCNC(=O)Cn1cnc2c(N3CCOCC3)ncnc21)NO	–
6	–	–	–	–	CNc1ncnc2c1ncn2CC(=O)NCCCC(=O)NO	–
80	0.3	1.61	9.58	3.8	O=C(CCCCCNC(=O)Cn1cnc2c(Nc3ccccc3)nc(Nc3ccccc3)nc21)NO	IC50 (PC-3): 2.14 µM; IC50 (A549): 18 µM; IC50 (U-937): 4.07 µM; IC50 (HeLa): 9.08 µM; IC50 (cells [4]): 13.4 µM; IC50 (Histone deacetylase 1): 0.028 µM; IC50 [5]: 0.0038 µM; IC50 (Histone deacetylase 8): 0.2 µM
13	–	–	–	–	O=C(CCNC(=O)Cn1cnc2c(NCc3ccccc3)ncnc21)NO	–
15	–	–	–	–	O=C(CCCNC(=O)Cn1cnc2c(N3CCOCC3)ncnc21)NO	–

Continued, molecule first:

Compound	inhibition [1] [%]	IC50 [2] [µM]	IC50 (MDA-MB-231) [µM]	IC50 (MCF7) [µM]	IC50 (cells [3]) [µM]	other results
O=C(CCCCCCNC(=O)Cn1cnc2c(Nc3ccccc3)nc(Nc3ccccc3)nc21)NO	95	0.51	1.55	9.04	2.88	IC50 (PC-3): 4.26 µM; IC50 (A549): 10.1 µM; IC50 (U-937): 3.91 µM; IC50 (HeLa): 8.76 µM; IC50 (cells [4]): 8.95 µM; IC50 (Histone deacetylase 1): 0.063 µM; IC50 [5]: 0.0018 µM; IC50 (Histone deacetylase 8): 0.32 µM
O=C(CCCCCNC(=O)Cn1cnc2c(N3CCOCC3)nc(Nc3ccccc3)nc21)NO	98	0.075	1.56	18.6	5.37	IC50 (PC-3): 6.44 µM; IC50 (A549): 46.1 µM; IC50 (U-937): 6.5 µM; IC50 (HeLa): 18.2 µM; IC50 (cells [4]): 28 µM; IC50 (Histone deacetylase 1): 0.035 µM; IC50 [5]: 0.0026 µM; IC50 (Histone deacetylase 8): 0.15 µM
O=C(CCCCNC(=O)Cn1cnc2c(Nc3ccccc3)ncnc21)NO	59	2.51	> 50	> 50	> 50	–
O=C(CCCCCCNC(=O)Cn1cnc2c(Nc3ccccc3)ncnc21)NO	49	2.94	8.91	> 50	> 50	–
Nc1nc(N2CCOCC2)c2ncn(CC(=O)NCCCC(=O)NO)c2n1	-1	–	–	–	–	–
O=C(CCCCNC(=O)Cn1cnc2c(Nc3ccccc3)nc(Nc3ccccc3)nc21)NO	87	0.59	11.1	> 50	34.7	–
O=C(CCCCCNC(=O)Cn1cnc2c(Nc3ccccc3)ncnc21)NO	72	2.09	22.3	> 50	> 50	–
Nc1nc(N2CCOCC2)c2ncn(CC(=O)Nc3ccc(CC(=O)NO)cc3)c2n1	0	–	–	–	–	–
O=C(CCCCCNC(=O)Cn1cnc2c(NCc3ccccc3)ncnc21)NO	70	2.05	34.2	> 50	> 50	–
O=C(CCNC(=O)Cn1cnc2c(N3CCOCC3)nc(Nc3ccccc3)nc21)NO	56	> 5	–	–	–	–
CNc1ncnc2c1ncn2CC(=O)NCC(=O)NO	3	–	–	–	–	–
CNc1ncnc2c1ncn2CC(=O)NCCC(=O)NO	10	–	–	–	–	–
Nc1nc(N2CCOCC2)c2ncn(CC(=O)NCCC(=O)NO)c2n1	20	–	–	–	–	–
